Literature values in patent publication US8754219B2, “Compounds that modulate intracellular calcium” (Calcimedica, Inc., priority 2010, dated 2014).

How the values were obtained:
[1] = target: STIM1 and Orai1 in HEK293 cells (Homo sapiens, UniProt Q96D31); conditions: Orai1 expressed along with STIM1
colon cancer cells [2] = test system: colon cancer cells
Jurkat cells [3] = test system: Jurkat cells
Jurkat cells [4] = test system: Jurkat cells; remark: listed apart in the source
colon cancer cells [5] = test system: colon cancer cells; remark: listed apart in the source

STIM1 and Orai1 in HEK293 cells, sequence (Q96D31 whole entry): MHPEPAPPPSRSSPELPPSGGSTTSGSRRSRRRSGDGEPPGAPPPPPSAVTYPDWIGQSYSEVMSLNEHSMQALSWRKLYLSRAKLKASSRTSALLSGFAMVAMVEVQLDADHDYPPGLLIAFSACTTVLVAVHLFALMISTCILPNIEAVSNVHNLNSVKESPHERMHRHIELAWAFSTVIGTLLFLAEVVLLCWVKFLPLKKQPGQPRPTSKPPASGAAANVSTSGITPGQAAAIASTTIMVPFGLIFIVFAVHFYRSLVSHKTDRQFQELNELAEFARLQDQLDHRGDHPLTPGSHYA

block of store dependent Ca2+ entry [1] | SMILES | inhibition of proliferation (colon cancer cells [2]) | inhibition of SOCE (Jurkat cells [3]) | inhibition of proliferation (Jurkat cells [4]) | inhibition of SOCE (colon cancer cells [5])
completely blocked | NCCOB(c1ccccc1)c1ccccc1 [2-aminoethoxydiphenylborate] |  |  |  | 
 | Cc1nnsc1C(=O)Nc1ccc(-n2nc(C(F)(F)F)cc2C(F)(F)F)cc1 [BTP-2] | inhibits | inhibits | inhibits | inhibits
